Structures can show the parent of a compound that is named as a salt. Each block holds one molecule with its values, some of them ahead of it.
Columns and labels:
[1] = tested on: Staphylococcus aureus(Russell); assay: MIC / synergism, microtitre method (Example 42); format: cell-based; details: synergist (clavulanic acid sodium salt) added at 1 μg/ml. instead of 5 μg/ml.
[2] = tested on: Staphylococcus aureus Russell; assay: MIC, microtitre technique (Example 53); format: cell-based
Klebsiella aerogenes E70 = assay: MIC, microtitre technique (Example 53); format: cell-based
[3] = target: T1, β-lactamase of Staphylococcus aureus (Russell) (Staphylococcus aureus, UniProt P00807); assay: β-lactamase inhibition assay; format: biochemical; details: standard enzyme inhibitory assay (Example 49); read-out: I50 (converted)
T1 construct: endogenous in cells; host or cells: Staphylococcus aureus (Russell)

[4] = target: T2, β-lactamase produced by Escherichia coli JT4 (Escherichia coli, UniProt P62593); assay: β-lactamase inhibition assay (Description 1); format: biochemical
T2 construct: This cell suspension was then disrupted in an MSE ultrasonic disintegrator at 4° C; endogenous in cells; host or cells: Escherichia coli JT4 (ampicillin-resistant, R-factor), supernatant of sonicated cells
T2 sequence (P62593 24-286 limits assumed): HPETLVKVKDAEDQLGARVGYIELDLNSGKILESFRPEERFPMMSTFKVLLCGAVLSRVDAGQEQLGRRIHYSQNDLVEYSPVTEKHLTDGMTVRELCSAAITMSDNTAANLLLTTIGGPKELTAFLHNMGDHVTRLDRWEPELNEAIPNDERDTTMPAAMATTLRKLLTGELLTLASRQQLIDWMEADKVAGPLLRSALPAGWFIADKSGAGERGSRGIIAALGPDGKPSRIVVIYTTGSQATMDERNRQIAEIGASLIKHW

[5] = hydrolysis of ester in phosphate buffer pH 7; format: physicochemical; details: 1 mg/ml., 37° C, 0.05M phosphate buffer at pH 7, followed over 2 hours by paper chromatography
Description: The reaction was followed by paper chromatography (bioautographic system). Using the butanol/ethanol/water system to follow the reaction over a period of 2 hours the zone of the methyl ester at Rf 0.79 decreased in size as the zone of clavulanic acid at Rf 0.12 increased.

Proteus mirabilis C889 = assay: MIC / synergism with methyl ester (Example 32); format: cell-based; details: in the presence of 5 μg/ml. clavulanic acid methyl ester
Klebsiella aerogenes A = assay: MIC / synergism, microtitre method (Example 42); format: cell-based; details: method of Example 42 (μg/ml)
[6] = tested on: Klebsiella aerogenes E 70; assay: MIC / synergism, microtitre method (Example 42); format: cell-based; details: method of Example 42 (μg/ml)
Klebsiella aerogenes 62 = assay: MIC / synergism, microtitre method (Example 42); format: cell-based; details: method of Example 42 (μg/ml)
[7] = tested on: Staphylococcus aureus (Russell); assay: MIC / synergism with methyl ester (Example 32); format: cell-based; details: in the presence of 1.0 μg/ml. clavulanic acid methyl ester
[8] = head prints sodium clavulanate, title sodium isoclavulanate, inoculum 1/500

Structure (SMILES): O=C(Cc1cccs1)N[C@@H]1C(=O)N2C(C(=O)[O-])=C(C[n+]3ccccc3)CS[C@H]12 [Cephaloridine, cephaloridine]
Minimum Inhibitory Concentration of cephaloridine in presence of synergist [1]: Same value

Structure (SMILES): O=C(O)[C@H]1/C(=C/CO)O[C@@H]2CC(=O)N21 [clavulanic acid sodium salt, 3-(β-hydroxyethylidine)-7-oxo-4-oxa-1-azabicyclo [3,2,0]heptane-2-carboxylic acid sodium salt]
MIC ([2]; Staphylococcus aureus, compound alone, inoculum of 1/500 of overnight broth): 125 µg/mL
MIC (Klebsiella aerogenes E70; Klebsiella aerogenes, E70): 500 µg/mL

Structure (SMILES): O=C(COc1ccccc1)OC/C=C1\O[C@@H]2CC(=O)N2[C@H]1C(=O)OCc1ccccc1 [Benzyl phenoxyacetylclavulanate]
IC50 [3]: 17.7 µM
IC50 ([4]; benzylpenicillin substrate, 15 min preincubation, pH 7, 37° C): 5.9 µM

Structure (SMILES): COC(=O)[C@H]1/C(=C/CO)O[C@@H]2CC(=O)N21 [clavulanic acid methyl ester]
hydrolysis of the ester to clavulanic acid [5]: Slow conversion of the ester to clavulanic acid

MIC of Ampicillin + 5 μg/ml of Benzyl Ester of clavulanic acid (Klebsiella aerogenes A): 1.9
MIC of Ampicillin + 5 μg/ml of Methyl Ester of clavulanic acid (Klebsiella aerogenes A): 1.9
MIC of Ampicillin + 5 μg/ml of Benzyl Ester of clavulanic acid [6]: 3.9
MIC of Ampicillin + 5 μg/ml of Methyl Ester of clavulanic acid [6]: 3.9
MIC of Ampicillin + 1μg/ml sodium clavulanate [2, 8]: 3.9 µg/mL
MIC of Ampicillin + 5μg/ml sodium clavulanate [2, 8]: 0.78 µg/mL
MIC of Ampicillin + 20μg/ml sodium clavulanate [2, 8]: 0.39 µg/mL
MIC of Ampicillin + 1μg/ml sodium clavulanate (Klebsiella aerogenes E70; [8]): 15.6 µg/mL
MIC of Ampicillin + 20μg/ml sodium clavulanate (Klebsiella aerogenes E70; [8]): 6.2 µg/mL
MIC of Ampicillin + 5 μg/ml of Benzyl Ester of clavulanic acid (Klebsiella aerogenes 62): 3.9
MIC of Ampicillin + 5 μg/ml of Methyl Ester of clavulanic acid (Klebsiella aerogenes 62): 3.9
Structure (SMILES): CC1(C)S[C@@H]2[C@H](NC(=O)[C@H](N)c3ccccc3)C(=O)N2[C@H]1C(=O)O [Ampicillin, ampicillin]
minimum inhibitory concentration (M.I.C.) of antibiotic in presence of synergist (Proteus mirabilis C889): 31 µg/mL
minimum inhibitory concentration (M.I.C.) of antibiotic in presence of synergist [7]: < 0.4 µg/mL

Structure (SMILES): O=C(O)[C@H]1/C(=C/CO)O[C@@H]2CC(=O)N21 [clavulanic acid, Z-(2R,5R)-3-(β-hydroxyethylidene)-7-oxo-4-oxa-1-azabicyclo[3,2,0]heptane-2-carboxylic acid]
mode of inhibition of the β-lactamase [4]: progressively and irreversibly inhibits

Source: patent publication US4123540A, “Isoclavulanic acid as an antibacterial and a β-lactamase inhibitor” (Beecham Group Limited, priority 1974, dated 1978)
